Laboratory results as given in US11739122B2, “Glycopeptide antibiotic compounds, methods for producing the same, and uses thereof” (Academia Sinica, priority 2019, dated 2023).
pKd: −log10 of the molar value. ≈ marks a conversion by molar mass, not a printed value. Where “and” joins values, the source holds several entries; their conditions need not be identical. Equal entries are not always repeated. Structures can show the parent of a compound that is named as a salt. Where two headings read alike, the source gives them in different places.

Experiments:
Dbv27 = Dbv27 (Nonomuraea gerenzanensis, UniProt Q7WZ64); test: ITC binding affinity; settings: ITC versus Dbv27
Sequence of Dbv27 (Q7WZ64 entry or part of it): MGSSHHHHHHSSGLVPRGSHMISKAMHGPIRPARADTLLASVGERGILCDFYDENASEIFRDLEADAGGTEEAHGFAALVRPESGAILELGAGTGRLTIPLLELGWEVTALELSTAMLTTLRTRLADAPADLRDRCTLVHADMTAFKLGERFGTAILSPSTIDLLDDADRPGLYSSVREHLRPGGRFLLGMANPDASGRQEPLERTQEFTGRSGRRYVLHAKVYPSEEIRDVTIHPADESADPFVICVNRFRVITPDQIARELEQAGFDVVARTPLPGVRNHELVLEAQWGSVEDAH
Procedure: Isothermal Titration Calormetry (ITC) Analysis
A stock solution (50 mM) was prepared by dissolving r6,GlcNAc pseudoaglycone (9) in 50% DMSO. The 1 mM protein solutions of Orf2*, Orf2*T and Dbv27 were prepared in a 50 mM HEPES buffer solution at pH 8.0. The solution (50 mM HEPES, pH8.0 and 10% DMSO) that contained compound 9 (1 mM) or S-adenosylmethionine (SAM) (1 mM) in a 40 μL injection syringe was titrated into the Orf2*, Orf2*T or Dbv27 (0.1 mM) protein solution, which was placed in the sample cell of a 200 μL volume. Each titration consisted of 16 injections of a 2 μL4 s^−1 duration in an interval of 150 seconds. Data analysis was performed by software.

MRSA ATCC 43300 = test: MIC, broth microdilution; type: cell-based, Staphylococcus aureus
Procedure: (§1) Determination of Minimal Inhibitory Concentration (MIC) for Vancomycin, Teicoplanin and Tei-Analogs Versus Selected Strains
(§2) MICs were determined by the broth microdilution method. Specifically, 12 Colonies of the test strain were picked up from 18-24 hour agar cultures and freshly inoculated into broth mediums until reaching the turbidity of a 0.5 McFarland standard. The broth culture was adjusted with broth medium to approximately 1×10^8 CFUmL^−1. […] The plates were incubated in 37° C. for 18-24 hours and monitored for the wells of the positive control, where cells grew, and the wells of the negative control, where wells should not grow. The MIC value was determined for the concentration of a test compound, at which there was no visible growth in the well.

MRSA ATCC 700698 hVISA = test: MIC, broth microdilution; type: cell-based, Staphylococcus aureus
Procedure: as §1, §2

MRSA ATCC 700787 VRSA = test: MIC, broth microdilution; type: cell-based, Staphylococcus aureus
Procedure: as §1, §2

MRSA ATCC 700789 VRSA = test: MIC, broth microdilution; type: cell-based, Staphylococcus aureus
Procedure: as §1, §2

MRSA ATCC BAA-38 = test: MIC, broth microdilution; type: cell-based, Staphylococcus aureus
Procedure: as §1, §2

MRSA ATCC BAA-39 = test: MIC, broth microdilution; type: cell-based, Staphylococcus aureus
Procedure: as §1, §2

MRSA ATCC BAA-44 = test: MIC, broth microdilution; type: cell-based, Staphylococcus aureus
Procedure: as §1, §2

S. aureus ATCC 29213 = test: MIC, broth microdilution; type: cell-based, Staphylococcus aureus
Procedure: as §1, §2

E. faecalis ATCC 29302 = test: MIC, broth microdilution; type: cell-based
Procedure: as §1, §2

VRE ATCC 700221 (vanA) = test: MIC, broth microdilution; type: cell-based, enterococci
Procedure: as §1, §2

VRE ATCC 700425 (vanC) = test: MIC, broth microdilution; type: cell-based, enterococci
Procedure: as §1, §2

VRE ATCC 700802 (vanB) = test: MIC, broth microdilution; type: cell-based, enterococci
Procedure: as §1, §2

A. baumannii ATCC 19606 [1] = test: MIC, broth microdilution; type: cell-based, Acinetobacter baumannii; settings: Acinetobacter baumannii
Procedure: as §1, §2

MRSA ATCC 700787 = test: Thin-section TEM, cell wall morphology; type: cell-based, Staphylococcus aureus
Procedure: Thin-Section Transmission Electron Microscopy (TEM)
An overnight cultured MRSA ATCC 700787, VRE ATCC 700221 or A. baumannii ATCC 19606 was individually sub-cultured into a fresh medium. Bacteria at the exponential phase were treated with a given test compound at a concentration of 4×MIC for 1-4 hour at 37° C. and followed by wash and resuspension in PBS. Bacteria cells for the TEM analysis were prepared as follows: Cells were fixed with 2.5% glutaraldehyde for 30 minutes. After the fixation, cells were washed twice with PBS and fixed with 1% osmium tetraoxide for another 30 minutes. All the buffer was removed with distilled water. The cells were then stained with 1% uranyl acetate and dehydrated with a graded ethanol solution. Cells were embedded in resin. Finally, each sample was cut into thin slices of approximately 90 nm with a glass knife and stained with uranyl acetate. The images of bacterial morphological were recorded.
The cell wall/membrane apparently is the targets, while the extent of damage depends on what compound imposes on the strain. […] Cell wall thickening has been a common phenotype in clinical MRSA isolates, which may well be a phenotypic determinant for VRSA. The systemic cell-wall damage may account for the cell-wall biosynthesis crippled all over the cell surface in cell-wall thickening strains, thus leading cells to lysis as a result of the osmotic pressure of cytoplasm.

A. baumannii ATCC 19606 [2] = test: In vivo efficacy, intranasal A. baumannii infection; set-up: species or system mice; settings: BAL fluid, 24 hours post-inoculation; 24 and kanamycin 30, amikacin 15 mgkg^−1
Procedure: In Vivo Efficacy of r6,N-Acyl-Glc Tei Analogs
Female C57BL/6 mice (6 weeks of age; about 16-19 g, 3-5 mice per group) were intraperitoneally inoculated with 300 μL of MRSA ATCC 700787 suspension (about 10^7 CFUmL^−1). For intranasal A. baumannii (ATCC 19606) inoculation, mice were anesthetized, and inoculated intranasally with about 10^7-10^8 CFUmL^−1 A. baumannii in 50 μL of PBS. Treatments were started 1 hour after the bacterial challenge. The dose administration to mice was set as follows: teicoplanin (1) or r6,C8-Tei analog (14) 20 mgkg^−1 was intraperitoneally injected to MRSA-infected mice; amikacin (15 mgkg^−1), teicoplanin (1) (30 mgkg^−1), kanamycin (30 mgkg^−1) or r1,Me2-r6,guanidino-C8 analog (24) (30 mgkg^−1) was intraperitoneally injected to AB-infected mice. To assess bacteraemia, the test animals were sacrificed to collect 1 mL of peritoneal fluid (PF) for MRSA counting or the lungs were lavaged to collect 0.6 mL bronchoalveolar lavage (BAL) fluid for A. baumannii counting.
For AB (ATCC 19606), female C57BL/6 mice were first anesthetized by intraperitoneal injection of zoletil and then intranasally inoculated with 50 μL of bacteria in a PBS solution (about 10^7-10^8 CFUmL^−1). The treatment started 1 hour post-infection with a single dose of compound 24 (30 mgkg^−1), compound 1 (30 mgkg^−1), amikacin (15 mgkg^−1), or kanamycin (30 mgkg^−1), where saline/compound 1 and amikacin/kanamycin respectively served as negative and positive controls. To assess the density of bacteraemia, the lungs of mice were lavaged to collect 0.6 mL bronchoalveolar lavage (BAL) fluid from each mouse at 24 hours post-inoculation. For saline/compound 1 treated controls, the bacterial load was counted (about 4 log CFUmL^−1, FIG. 4B), where the bacterial load was reduced by 0.5 or 1 log CFUmL^−1 with the treatment of amikacin/kanamycin or compound 24, respectively.

HEK293T cells = test: Alamar Blue cell viability assay; type: cell-based, human; settings: up to 100 μgmL^−1; 2 and 24 h
Procedure: The Alamar Blue (AB) assay, which includes a redox indicator that changes color or emits fluorescence in response to a metabolic activity, was used to assess in vitro mammalian cell cytotoxicity (human embryonic kidney cells (HEK293T)) upon an antibiotic treatment. 2×10^5 cellsmL^−1 were allowed to adhere on 96-well plates overnight at 37° C. in a humidified incubator (5% CO2 atmosphere). Tested compounds were dissolved in 50% DMSO to make 1 mgmL^−1 of a stock solution. Cells were separately aliquoted with 5 μL of a test compound (final concentration: 100 μgmL^−1) and incubated. PBS and 50% DMSO, which was used to dissolve compounds, served as a control. Cell viability was triplicated and assessed at 2 and 24 hour time points for each test compound, on which the measurements followed the manufacturer protocol.

Question: How did the pKd (Dbv27) turn out when `N[C@H]1[C@H](O[C@@H]2c3ccc(c(Cl)c3)Oc3cc4cc(c3O)Oc3ccc(cc3Cl)C[C@H]3NC(=O)[C@H](N)c5ccc(O)c(c5)Oc5cc(O)cc(c5)[C@H](NC3=O)C(=O)N[C@H]4C(=O)N[C@H]3C(=O)N[C@@H]2C(=O)N[C@H](C(=O)O)c2cc(O)cc(O)c2-c2cc3ccc2O)O[C@H](CO)[C@@H](O)[C@@H]1O` [Compound 12, r6,Glm pseudoaglycone] was run?
Answer: 5.30

Question: `CN[C@H](CC(C)C)C(=O)N[C@H]1C(=O)N[C@@H](CC(N)=O)C(=O)N[C@H]2C(=O)N[C@H]3C(=O)N[C@H](C(=O)N[C@H](C(=O)O)c4cc(O)cc(O)c4-c4cc3ccc4O)[C@H](O)c3ccc(c(Cl)c3)Oc3cc2cc(c3O[C@@H]2O[C@H](CO)[C@@H](O)[C@H](O)[C@H]2O[C@H]2C[C@](C)(N)[C@H](O)[C@H](C)O2)Oc2ccc(cc2Cl)[C@H]1O` [Compound 2, vancomycin, reference compound] was tested. Which MIC (MRSA ATCC 43300; Staphylococcus aureus) did it give?
Answer: 1 µg/mL (≈ 0.69 µM)

Question: What about the MIC (MRSA ATCC 700698 hVISA; Staphylococcus aureus) of the same compound?
Answer: 4 µg/mL (≈ 2.76 µM)

Question: And the MIC (MRSA ATCC 700787 VRSA; Staphylococcus aureus)?
Answer: 16 µg/mL (≈ 11 µM)

Question: What about the MIC (MRSA ATCC 700789 VRSA; Staphylococcus aureus) of the same compound?
Answer: 16 µg/mL (≈ 11 µM)

Question: And the MIC (MRSA ATCC BAA-38; Staphylococcus aureus)?
Answer: 1 µg/mL (≈ 0.69 µM)

Question: And the MIC (MRSA ATCC BAA-39; Staphylococcus aureus)?
Answer: 1 µg/mL (≈ 0.69 µM)

Question: What about the MIC (MRSA ATCC BAA-44; Staphylococcus aureus) of the same compound?
Answer: 2 µg/mL (≈ 1.38 µM)

Question: And the MIC (S. aureus ATCC 29213; Staphylococcus aureus, ATCC29213)?
Answer: 1 µg/mL (≈ 0.69 µM)

Question: What about the MIC (E. faecalis ATCC 29302; Enterococcus faecalis, ATCC29302) of the same compound?
Answer: 2 µg/mL (≈ 1.38 µM)

Question: What about the MIC (VRE ATCC 700221 (vanA); Enterococcus) of the same compound?
Answer: > 128 µg/mL

Question: What about the MIC (VRE ATCC 700425 (vanC); Enterococcus) of the same compound?
Answer: 16 µg/mL (≈ 11 µM)

Question: And the MIC (VRE ATCC 700802 (vanB); Enterococcus)?
Answer: 64 µg/mL (≈ 44.2 µM)

Question: And the MIC (A. baumannii ATCC 19606 [1]; ATCC19606)?
Answer: 200 µM and 297 µg/mL

Question: And the MIC (A. baumannii ATCC 19606 [1]; ATCC19606, read-out: MIC on AB)?
Answer: > 190 µg/mL

Question: What about the “cell wall morphology by TEM” value (MRSA ATCC 700787) of the same compound?
Answer: floppy

Question: For `NC[C@H]1O[C@H](O[C@H]2[C@H](O)[C@@H](O[C@H]3O[C@H](CO)[C@@H](O)[C@H](N)[C@H]3O)[C@H](N)C[C@@H]2N)[C@H](O)[C@@H](O)[C@@H]1O` [kanamycin sulfate, reference compound], which MIC (A. baumannii ATCC 19606 [1]; ATCC19606) is on record?
Answer: 25 µM and 14.6 µg/mL

Question: What about the MIC (A. baumannii ATCC 19606 [1]; ATCC19606, read-out: MIC on AB) of the same compound?
Answer: 14.6 µg/mL

Question: And the “bacterial load reduced by” value (A. baumannii ATCC 19606 [2])?
Answer: 0.5 log CFUmL^−1

Question: Which MIC (MRSA ATCC 43300; MRSA ATCC 43300) does the source give for `N[C@H]1C(=O)N[C@@H]2Cc3ccc(c(Cl)c3)Oc3cc4cc(c3O)Oc3ccc(cc3Cl)[C@@H](O[C@@H]3O[C@H](CO)[C@@H](O)[C@H](O)[C@H]3NC(=O)CCCCc3ccc(F)cc3)[C@@H]3NC(=O)[C@H](NC(=O)[C@@H]4NC(=O)[C@@H](NC2=O)c2cc(O)cc(c2)Oc2cc1ccc2O)c1ccc(O)c(c1)-c1c(O)cc(O)cc1[C@@H](C(=O)O)NC3=O` [Compound 18] here?
Answer: 0.031 µg/mL (≈ 0.0202 µM)

Question: And the MIC (MRSA ATCC 700698 hVISA; MRSA ATCC 700698 hVISA)?
Answer: 0.016 µg/mL (≈ 0.0104 µM)

Question: What about the MIC (MRSA ATCC 700787 VRSA; MRSA ATCC 700787 VRSA) of the same compound?
Answer: 0.125 µg/mL (≈ 0.0813 µM)

Question: And the MIC (MRSA ATCC 700789 VRSA; MRSA ATCC 700789 VRSA)?
Answer: 0.5 µg/mL (≈ 0.325 µM)

Question: And the MIC (MRSA ATCC BAA-38; MRSA ATCC BAA-38)?
Answer: 0.016 µg/mL (≈ 0.0104 µM)

Question: And the MIC (MRSA ATCC BAA-39; MRSA ATCC BAA-39)?
Answer: 0.063 µg/mL (≈ 0.041 µM)

Question: And the MIC (MRSA ATCC BAA-44; MRSA ATCC BAA-44)?
Answer: 0.016 µg/mL (≈ 0.0104 µM)

Question: And the MIC (S. aureus ATCC 29213; SA ATCC 29213)?
Answer: 0.063 µg/mL (≈ 0.041 µM)

Question: What about the MIC (E. faecalis ATCC 29302; EF ATCC 29302) of the same compound?
Answer: 0.25 µg/mL (≈ 0.163 µM)

Question: And the MIC (VRE ATCC 700221 (vanA); VRE ATCC 700221 (vanA))?
Answer: >16 µg/mL

Question: And the MIC (VRE ATCC 700425 (vanC); VRE ATCC 700425 (vanC))?
Answer: 1 µg/mL (≈ 0.65 µM)

Question: What about the MIC (VRE ATCC 700802 (vanB); VRE ATCC 700802 (vanB)) of the same compound?
Answer: 0.25 µg/mL (≈ 0.163 µM)

Question: And the “cytotoxicity to HEK293T cells” value (HEK293T cells)?
Answer: did not exhibit any observable toxicity
